Legend:
Type in all cases: functional
Trypanosoma brucei [1] = assay: Antiprotozoal activity against bloodstream form of multi-drug resistant Trypanosoma brucei B48 after 16 hrs by Alamar Blue assay; conditions: B48, 16 h
Trypanosoma brucei [2] = assay: Antiprotozoal activity against bloodstream form of wild type Trypanosoma brucei after 16 hrs by Alamar Blue assay
Trypanosoma brucei [3] = assay: Resistance factor, ratio of EC50 for multi-drug resistant Trypanosoma brucei B48 to EC50 for wild type Trypanosoma brucei
Leishmania mexicana [4] = assay: Antileishmanial activity against wild type Leishmania mexicana after 16 hrs by Alamar Blue assay
Leishmania mexicana [5] = assay: Resistance factor, ratio of EC50 for 5FU resistant Leishmania mexicana to EC50 for wild type Leishmania mexicana
Trypanosoma brucei [6] = assay: Resistance factor, ratio of EC50 for PYR6-5 deficient bloodstream form of 5-FU hypersensitive Trypanosoma brucei to EC50 for wild type Trypanosoma brucei
Trypanosoma brucei [7] = assay: Resistance factor, ratio of EC50 for 5FU resistant Trypanosoma brucei to EC50 for wild type Trypanosoma brucei
Trypanosoma brucei [8] = assay: Antiprotozoal activity against PYR6-5 deficient bloodstream form of 5-FU hypersensitive Trypanosoma brucei after 16 hrs by Alamar Blue assay
Trypanosoma brucei [9] = assay: Antiprotozoal activity against bloodstream form of 5FU resistant Trypanosoma brucei after 16 hrs by Alamar Blue assay
Leishmania mexicana [10] = assay: Antileishmanial activity against 5FU resistant Leishmania mexicana after 16 hrs by Alamar Blue assay

Row | Compound | EC50 (Trypanosoma brucei [1]) | EC50 (Trypanosoma brucei [2]) | Ratio EC50 (Trypanosoma brucei [3]) | EC50 (Leishmania mexicana [4]) | Ratio EC50 (Leishmania mexicana [5]) | Ratio EC50 (Trypanosoma brucei [6]) | Ratio EC50 (Trypanosoma brucei [7]) | EC50 (Trypanosoma brucei [8]) | EC50 (Trypanosoma brucei [9]) | EC50 (Leishmania mexicana [10])
1 | Cc1cc(C)cc(C(=O)O[C@@H]2C=C[C@H](n3ccc(=O)n(Cc4ccccc4)c3=O)C2)c1 | 8.7 µM | 8.6 µM | 1 | 31.8 µM | 0.79 | 1.29 | 1.01 | 11.1 µM | 8.7 µM | 25.1 µM
2 | COc1ccc(Cn2c(=O)cc(C)n([C@H]3C=C[C@@H](OC(=O)c4ccccc4)C3)c2=O)cc1 | 27.2 µM | 30.5 µM | 0.9 | 33.8 µM | 1.29 | 0.93 | 0.66 | 28.3 µM | 20.3 µM | 43.6 µM
3 | N#Cc1cccc(C(=O)O[C@@H]2C=C[C@H](n3ccc(=O)n(Cc4ccccc4)c3=O)C2)c1 | 25 µM | 27.9 µM | 0.9 | 45.5 µM | 1.16 | 0.94 | 0.76 | 26.4 µM | 21.4 µM | 52.6 µM
4 | Cc1cc(C)cc(Cn2c(=O)ccn([C@H]3C=C[C@@H](OC(=O)c4ccccc4)C3)c2=O)c1 | 15.7 µM | 15.2 µM | 1 | 41.3 µM | 0.94 | 1.05 | 0.82 | 15.9 µM | 12.4 µM | 38.6 µM
5 | O=c1[nH]c(=O)n([C@H]2C=C[C@@H](O)C2)cc1Nc1ccccc1 | 30 µM | 28.1 µM | 1.1 | 94.1 µM | 1.01 | 0.76 | 0.49 | 21.4 µM | 13.8 µM | 95.3 µM
6 | O=c1ccn([C@H]2C=C[C@@H](O)C2)c(=O)[nH]1 | 37.9 µM | 37.6 µM | 1 | 97 µM | 1.01 | 0.92 | 0.85 | 34.6 µM | 31.9 µM | 97.9 µM
7 | O=C(O[C@@H]1C=C[C@H](n2ccc(=O)[nH]c2=O)C1)c1ccccc1 | 38.1 µM | 38.3 µM | 1 | 94.8 µM | 1.01 | 0.93 | 0.84 | 35.6 µM | 32.3 µM | 95.7 µM
8 | O=C(O[C@@H]1C=C[C@H](n2ccc(=O)n(C(=O)c3cc(Cl)cc(Cl)c3)c2=O)C1)c1cc(Cl)cc(Cl)c1 | 33.9 µM | 31.8 µM | 1.1 | 89.1 µM | 1.03 | 0.93 | 0.79 | 29.5 µM | 25 µM | 91.4 µM
9 | O=c1[nH]c(=O)n([C@H]2C=C[C@@H](O)C2)cc1Br | 36.7 µM | 37.3 µM | 1 | 97.4 µM | 1 | 0.96 | 0.87 | 35.7 µM | 32.4 µM | 97.3 µM
10 | Cc1cc(C)cc(Cn2c(=O)cc(C)n([C@H]3C=C[C@@H](OC(=O)c4ccccc4)C3)c2=O)c1 | 14 µM | 15.1 µM | 0.9 | 25.6 µM | 1.11 | 1.03 | 0.95 | 15.6 µM | 14.3 µM | 28.5 µM
11 | O=c1[nH]c(=O)n([C@H]2C=C[C@@H](O)C2)cc1I | 36.2 µM | 35.3 µM | 1 | 95.2 µM | 1 | 0.95 | 0.87 | 33.5 µM | 30.8 µM | 95.6 µM
12 | O=C(O[C@@H]1C=C[C@H](n2ccc(=O)[nH]c2=O)C1)c1cc(Cl)cc(Cl)c1 | 34.8 µM | 33.2 µM | 1 | 81.5 µM | 1.1 | 0.95 | 0.8 | 31.6 µM | 26.7 µM | 89.4 µM
